Measurements: the supplement of paper PMC10307832

How the values were obtained:
Assay in all cases: relative viability (nuclei count vs DMSO), 5 days (fraction); higher = more cells survive
QS11 = compound: C1CC2=C(C1)C=C(C=C2)OC3=NC(=C4C(=N3)N(C=N4)CC5=CC=C(C=C5)C6=CC=CC=C6)N[C@@H](CC7=CC=CC=C7)CO [QS11]
Method in brief: (§1)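 Acceptance criteria were a control CV below 25% and at least one doubling per plate. Lung cancer cell lines in 1536-well plates got five library-drug doses (not always all listed) √10 apart by pinning and were left 5 days with no medium change. Viability divides treated-well nuclei by vehicle-well nuclei and is the median across plates. Nuclei were counted by MetaXpress from 4× Hoechst images.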

AZ628 = compound: CC1=C(C=C(C=C1)NC(=O)C2=CC(=CC=C2)C(C)(C)C#N)NC3=CC4=C(C=C3)N=CN(C4=O)C [AZ628]
Method in brief: as §1

Darinaparsin = compound: C[As](C)SC[C@H](NC(=O)CC[C@H](N)C(=O)O)C(=O)NCC(=O)O [Darinaparsin]
Method in brief: as §1

AZ628 + Crizotinib = compound: CC1=C(C=C(C=C1)NC(=O)C2=CC(=CC=C2)C(C)(C)C#N)NC3=CC4=C(C=C3)N=CN(C4=O)C [AZ628] + C[C@@H](Oc1cc(-c2cnn(C3CCNCC3)c2)cnc1N)c1c(Cl)ccc(F)c1Cl [Crizotinib] (partner 1 µM)
Method in brief: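 The day after seeding in 1536-well plates, lung cancer cell lines were treated by pin tool with a single drug, or with a fixed anchor-drug dose together with five library-drug doses (not always all listed) in √10 steps. After 5 days, a combined fix-and-stain solution (final 0.05% Triton X-100, 1% formaldehyde, 1 ug/ml Hoechst) was added. Nuclei counted on 4× images gave relative viability as treated counts over vehicle counts, reported as the median of duplicate plates.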

Cell Line HCC-78 has a relative viability (QS11; 0.08 µM) of 0.958, a relative viability (QS11; 0.253 µM) of 0.955 and a relative viability (QS11; 0.8 µM) of 0.94. It also gave a relative viability (QS11; 2.53 µM) of 1.03, a relative viability (QS11; 8 µM) of 1.05 and a relative viability (AZ628; 0.08 µM) of 1.09. For the same cell line, the relative viability (AZ628; 0.253 µM) was 0.911, the relative viability (AZ628; 0.8 µM) was 1.08 and the relative viability (AZ628; 2.53 µM) was 1.05. It also gave a relative viability (AZ628; 8 µM) of 0.932, a relative viability (Darinaparsin; 0.08 µM) of 1 and a relative viability (Darinaparsin; 0.8 µM) of 0.918. The relative viability (Darinaparsin; 2.53 µM) was 0.936, the relative viability (Darinaparsin; 8 µM) was 1.09 and the relative viability (AZ628 + Crizotinib; first compound 0.08 µM) was 0.404. The relative viability (AZ628 + Crizotinib; first compound 0.253 µM) was 0.403, the relative viability (AZ628 + Crizotinib; first compound 0.8 µM) was 0.38 and the relative viability (AZ628 + Crizotinib; first compound 2.53 µM) was 0.413. For the same cell line, the relative viability (AZ628 + Crizotinib; first compound 8 µM) was 0.4.
NCI-H23 gave a relative viability (QS11; 0.08 µM) of 0.995, a relative viability (QS11; 0.253 µM) of 0.85 and a relative viability (QS11; 0.8 µM) of 0.832. It also gave a relative viability (QS11; 2.53 µM) of 0.832, a relative viability (QS11; 8 µM) of 0.831 and a relative viability (AZ628; 0.08 µM) of 1.01. It also gave a relative viability (AZ628; 0.253 µM) of 0.838, a relative viability (AZ628; 0.8 µM) of 0.721 and a relative viability (AZ628; 2.53 µM) of 0.799. For the same cell line, the relative viability (AZ628; 8 µM) was 0.543, the relative viability (Darinaparsin; 0.08 µM) was 1.06 and the relative viability (Darinaparsin; 0.8 µM) was 0.843. The relative viability (Darinaparsin; 2.53 µM) was 1.11, the relative viability (Darinaparsin; 8 µM) was 1.14 and the relative viability (AZ628 + Crizotinib; first compound 0.08 µM) was 0.498. For the same cell line, the relative viability (AZ628 + Crizotinib; first compound 0.253 µM) was 0.49, the relative viability (AZ628 + Crizotinib; first compound 0.8 µM) was 0.347 and the relative viability (AZ628 + Crizotinib; first compound 2.53 µM) was 0.493. It also gave a relative viability (AZ628 + Crizotinib; first compound 8 µM) of 0.456.
Work on NCI-H838 yielded a relative viability (QS11; 0.08 µM) of 0.99, a relative viability (QS11; 0.253 µM) of 0.915 and a relative viability (QS11; 0.8 µM) of 0.784. The relative viability (QS11; 2.53 µM) was 0.908, the relative viability (QS11; 8 µM) was 0.872 and the relative viability (AZ628; 0.08 µM) was 1.02. For the same cell line, the relative viability (AZ628; 0.253 µM) was 0.992, the relative viability (AZ628; 0.8 µM) was 0.951 and the relative viability (AZ628; 2.53 µM) was 0.932. For the same cell line, the relative viability (AZ628; 8 µM) was 0.868, the relative viability (Darinaparsin; 0.08 µM) was 0.997 and the relative viability (Darinaparsin; 0.8 µM) was 0.931. For the same cell line, the relative viability (Darinaparsin; 2.53 µM) was 0.991, the relative viability (Darinaparsin; 8 µM) was 1.14 and the relative viability (AZ628 + Crizotinib; first compound 0.08 µM) was 0.84. It also gave a relative viability (AZ628 + Crizotinib; first compound 0.253 µM) of 0.842, a relative viability (AZ628 + Crizotinib; first compound 0.8 µM) of 0.719 and a relative viability (AZ628 + Crizotinib; first compound 2.53 µM) of 0.747. For the same cell line, the relative viability (AZ628 + Crizotinib; first compound 8 µM) was 0.655.
For COR-L23, the relative viability (QS11; 0.08 µM) was 1.02, the relative viability (QS11; 0.253 µM) was 1.01 and the relative viability (QS11; 0.8 µM) was 0.827. It also gave a relative viability (QS11; 2.53 µM) of 0.918, a relative viability (QS11; 8 µM) of 0.648 and a relative viability (AZ628; 0.08 µM) of 1.08. For the same cell line, the relative viability (AZ628; 0.253 µM) was 1.1, the relative viability (AZ628; 0.8 µM) was 0.957 and the relative viability (AZ628; 2.53 µM) was 1.12. The relative viability (AZ628; 8 µM) was 0.614, the relative viability (Darinaparsin; 0.08 µM) was 1.11 and the relative viability (Darinaparsin; 0.8 µM) was 0.995. It also gave a relative viability (Darinaparsin; 2.53 µM) of 0.96, a relative viability (Darinaparsin; 8 µM) of 1.37 and a relative viability (AZ628 + Crizotinib; first compound 0.08 µM) of 0.619. For the same cell line, the relative viability (AZ628 + Crizotinib; first compound 0.253 µM) was 0.736, the relative viability (AZ628 + Crizotinib; first compound 0.8 µM) was 0.666 and the relative viability (AZ628 + Crizotinib; first compound 2.53 µM) was 0.59. The relative viability (AZ628 + Crizotinib; first compound 8 µM) was 0.365.
